Reference: article PMC4043446 (Arteriosclerosis, thrombosis, and vascular biology, 2013)

Test system: LPS-challenged mice
Test: LPS-induced mortality in mouse endotoxemia model
Format: in vivo, C57BL/6 mice
Settings: 5 mg/kg retro-orbital prior to i.p. LPS; 10 mice/group; Kaplan-Meier

## Integrilin
  LPS-induced mortality (Integrilin): showed a trend in reducing
